The values that follow come from patent US20200024315A1, “ANTIMICROBIAL PEPTIDES AND METHODS OF TREATING GRAM-NEGATIVE PATHOGENS” (THE REGENTS OF THE UNIVERSITY OF COLORADO, a body corporate, priority 2017, published 2020).

Square brackets hold non-standard residues; d marks the D form. Orn = NCCC[C@H](N)C(=O)O

A short description of data set [1]: Circular dichroism (CD) spectroscopy, characterization of helical structure. It counts as physicochemical. As to conditions: for α-helical content (% helix) in aqueous conditions: aqueous benign buffer pH 7.0, 5° C.; for inducible helical structure Δ[Θ]222 nm TFE-Aqueous: difference 50% TFE minus aqueous buffer; for helical structure in hydrophobic medium containing 50% TFE: buffer pH 7.0 / 50% TFE, 5° C. For orientation: Circular dichroism is the unequal absorption of left and right circularly polarised light.
Experimental: The mean residue molar ellipticities of peptides were determined by circular dichroism (CD) spectroscopy, using a Jasco J-815 spectropolarimeter (Jasco Inc. Easton, Md., USA) at 5° C. under benign (non-denaturing) conditions (50 mM NaH2PO4/Na2HPO4/100 mM KCl, pH 7.0), hereafter referred to as benign buffer, as well as in the presence of an alpha-helix inducing solvent, 2,2,2-trifluoroethanol, TFE, (50 mM NaH2PO4/Na2HPO4/100 mM KCl, pH 7.0 buffer/50% TFE). A 10-fold dilution of an approximately 500 microM stock solution of the peptide analogs was loaded into a 0.1 cm quartz cell and its ellipticity scanned from 195 to 250 nm. Peptide concentrations were determined by amino acid analysis.

In data set [2] the test system is A. baumannii compared to P. aeruginosa. Kind of data set: Selectivity (MICGM P. aeruginosa/MICGM A. baumannii). It counts as cell-based, Acinetobacter baumannii.
Data set [3] can be described thus: Temperature profiling in RP-HPLC (peptide self-association). It counts as physicochemical. As to conditions: RP-HPLC pH 2, 5° C.-77° C., maximum change in retention time relative to random coil standards. The text has this: Peptide self-association, the ability to oligomerize/dimerize in aqueous solution, is an important parameter that can improve antimicrobial activity while removing toxicity. The inventors hypothesize that the monomeric random-coil antimicrobial peptides in aqueous solution are best suited to pass through a polysaccharide capsule, the outer membrane lipopolysaccharide and the cell wall peptidoglycan layer of microorganisms prior to penetration into the cytoplasmic membrane, induction of alpha-helical structure and disruption of membrane structure to kill target cells. […] In the present study, the ability of the AMPs to self-associate was determined by a technique developed in the inventors' laboratory, referred to as RP-HPLC temperature profiling at pH 2 over the temperature range of 5° C. to 80° C. […]
Purified peptides were analyzed on an Agilent 1200 series liquid chromatograph for temperature profiling using a Zorbax 300 SB-C8 column (150 mm×2.1 mm I.D.; 5 μm particle size, 300 Å pore size) from Agilent Technologies. […]
FIGS. 5-8 illustrate self-association profiles of the α-helical AMP analogs as determined by temperature profiling in RP-HPLC. […]

The subject of data set [4] is human erythrocytes. Put plainly: Hemolytic activity against human erythrocytes. It counts as cell-based. Particulars: 1% human erythrocytes, 18 h, 37° C. The protocol:
Peptide samples (concentrations determined by amino acid analysis) were added to 1% human erythrocytes in phosphate-buffered saline (100 mM NaCl, 80 mM Na2HPO4, 20 mM NaH2PO4, pH 7.4) and the reaction mixtures were incubated at 37° C. for 18 h in microtiter plates. Two-fold serial dilutions of the peptide samples were carried out. This determination was made by withdrawing aliquots from the hemolysis assays and removing unlysed erythrocytes by centrifugation (800×g). Hemoglobin release was determined spectrophotometrically at 570 nm. The control for 100% hemolysis was a sample of erythrocytes treated with water. The control for no release of hemoglobin was a sample of 1% erythrocytes without any peptide added. Since erythrocytes were in an isotonic medium, no detectable release (<1% of that released upon complete hemolysis) of hemoglobin was observed from this control during the assay. The hemolytic activity is generally determined as the peptide concentration that causes 50% hemolysis of erythrocytes after 18 h (HC50). HC50 was determined from a plot of percent lysis versus peptide concentration (microM). If 50% hemolysis could not be reached, the inventors used HC30 values (30% hemolysis).

Data set [5] has as its system Pseudomonas aeruginosa. Kind of data set: Antimicrobial activity against Pseudomonas aeruginosa. It counts as cell-based. The protocol:
In the current study de novo designed AMPs were tested against seven diverse clinical isolates of the Gram-negative pathogen A. baumannii and seven A. baumannii strains resistant to polymyxin B and polymyxin E (Colistin). In addition, the inventors tested these AMPs against six diverse clinical isolates of the Gram-negative pathogen, P. aeruginosa, and nine Gram-positive methicillin-sensitive S. aureus clinical isolates and eight Gram-positive methicillin/oxacillin-resistant S. aureus strains. This testing allows for the determination of pathogen selectivity between Gram-negative and Gram-positive pathogens as the location of the positively charged residues on the polar face is varied.
The minimal inhibitory concentration (MIC) is defined as the lowest peptide concentration that inhibited bacterial growth. MICs were measured by a standard microtiter dilution method in Mueller Hinton (MH) medium. Briefly, cells were grown overnight at 37° C. in MH broth and were diluted in the same medium. Serial dilutions of the peptides were added to the microtiter plates in a volume of 50 microL, followed by the addition of 50 microL of bacteria to give a final inoculum of 5×10^5 colony-forming units (CFU)/mL. The plates were incubated at 37° C. for 24 h, and the MICs were determined.

The target of data set [6] is D26 (K13A, K16A). Kind of data set: RP-HPLC temperature profiling 5-77 C, pH 2; self-association (monomer-dimer) of the peptide.
In data set [7] the target is D52. The data set is described as above.

With Ac-ALKKLLSTLSSARSSRLSTLLKALKK-NH2 [D58], in data set [1], the “α-helical content (% helix) in aqueous conditions” value (“α-helical content (% helix)” for short) came to 7.2% and the “inducible helical structure Δ[Θ]222 nm TFE-Aqueous” value is 750.
The matching figures for “Ac-AL[Orn][Orn]LLSTLSSAKSSKLSTLL[Orn]AL[Orn][Orn]-NH2 [D59]”: 6.9% and 1061.
In the case of “Ac-KLKSLLKTLSKAKKKKLKTLLKALSK-NH2 [D16, reference compound]”, in data set [2], the “selectivity factor (MICGM P. aeruginosa/MICGM A. baumannii)” value amounted to 2.7.
For the molecule “Ac-ALKKLLSTLSSA[Orn]SS[Orn]LSTLLKALKK-NH2 [D56]”, in data set [1], the “α-helical content (% helix)” value stood at 3.5% and the “helical structure in hydrophobic medium containing 50% TFE” value was 27.2%.
As for “Ac-KLKSLLSTLSSAAKKALSTLLSALSK-NH2 [D26 (K13A, K16A)]”, the “helical structure in aqueous buffer conditions (in words)” value in data set [1] (50 mM potassium phosphate buffer, pH 7.0, 100 mM KCl) is “α-helical”.
With “Ac-ALKKLLSTLSSAKSSKLSTLLKALKK-amide (Ac-ALKKLLSTLSSAKSSKLSTLLKALKK-NH2) [D52]”, in data set [1], the “α-helical content (% helix)” value stood at 13.7%, the “helical structure in hydrophobic medium containing 50% TFE” value was 100% and the “inducible helical structure Δ[Θ]222 nm TFE-Aqueous” value is 1422. Besides, in data set [3], the “peptide self-association parameter PA” value came to 7.78 min.
In the case of Ac-KLKSLLSTLSSAKKKKLSTLLSALSK-NH2 [D26], in data set [1], the “α-helical content (% helix)” value turned out to be 8.9%. The “hemolytic activity HC50” value in data set [4] is over 1776 µM. The “improvement in selectivity (MICGM P. aeruginosa/MICGM A. baumannii)” value in data set [2] is listed as 25 fold. Moreover, in data set [5], the “activity against Pseudomonas aeruginosa (in words)” value was “inactive”.

B1: D26 (K13A, K16A) (peptide)
chain: Ac-[dK][dL][dK][dS][dL][dL][dS][dT][dL][dS][dS][dA][dA][dK][dK][dA][dL][dS][dT][dL][dL][dS][dA][dL][dS][dK]-NH2
Molecule B1 had a PA (peptide self-association parameter) in data set [6] of 27 min.

B2: D52 (peptide)
chain: Ac-[dA][dL][dK][dK][dL][dL][dS][dT][dL][dS][dS][dA][dK][dS][dS][dK][dL][dS][dT][dL][dL][dK][dA][dL][dK][dK]-NH2
SMILES: CC(=O)N[C@H](C)C(=O)N[C@H](CC(C)C)C(=O)N[C@H](CCCCN)C(=O)N[C@H](CCCCN)C(=O)N[C@H](CC(C)C)C(=O)N[C@H](CC(C)C)C(=O)N[C@H](CO)C(=O)N[C@@H](C(=O)N[C@H](CC(C)C)C(=O)N[C@H](CO)C(=O)N[C@H](CO)C(=O)N[C@H](C)C(=O)N[C@H](CCCCN)C(=O)N[C@H](CO)C(=O)N[C@H](CO)C(=O)N[C@H](CCCCN)C(=O)N[C@H](CC(C)C)C(=O)N[C@H](CO)C(=O)N[C@@H](C(=O)N[C@H](CC(C)C)C(=O)N[C@H](CC(C)C)C(=O)N[C@H](CCCCN)C(=O)N[C@H](C)C(=O)N[C@H](CC(C)C)C(=O)N[C@H](CCCCN)C(=O)N[C@H](CCCCN)C(N)=O)[C@H](C)O)[C@H](C)O
Regarding B2, in data set [7], the PA (peptide self-association parameter) was determined as 7.78 min.
